Experimental data published in paper PMC11537224 (ACS Infectious Diseases, 2024).
Like-named read-outs stand apart in the source and are kept apart here.

Key:
[1] = target: TbTS (Trypanosoma brucei brucei, UniProt Q27783); assay: TbDHFR-TS inhibition assay versus the TS domain; type: biochemical
[2] = target: hTS (Homo sapiens, UniProt P04818); assay: hTS inhibition assay; type: biochemical
[3] = tested on: T. brucei bloodstream forms; assay: Activity toward T. brucei bloodstream forms; type: cell-based, T. brucei brucei Lister 427; details: for EC50: Trypanosoma brucei, 72 h
[4] = tested on: L. infantum promastigotes; assay: L. infantum promastigotes viability assay; type: cell-based, L. infantum MHOM/TN/80/IPT1; details: Leishmania infantum, 72 h, read-out: L. infantum EC50 (μM)
[5] = target: TbDHFR (Trypanosoma brucei brucei, UniProt Q27783); assay: biochemical
[6] = target: T1, hDHFR (Homo sapiens, UniProt P00374); assay: biochemical
T1 sequence (P00374 1-187): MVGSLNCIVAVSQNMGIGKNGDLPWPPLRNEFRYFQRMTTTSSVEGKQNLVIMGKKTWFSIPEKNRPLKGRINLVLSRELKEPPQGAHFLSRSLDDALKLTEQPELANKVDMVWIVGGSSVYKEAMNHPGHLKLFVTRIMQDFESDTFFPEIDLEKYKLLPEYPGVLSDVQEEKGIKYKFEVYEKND

[7] = target: T2, TbPTR1 (Trypanosoma brucei brucei, UniProt O76290); assay: TbPTR1 inhibition assay
T2 sequence (O76290 1-268): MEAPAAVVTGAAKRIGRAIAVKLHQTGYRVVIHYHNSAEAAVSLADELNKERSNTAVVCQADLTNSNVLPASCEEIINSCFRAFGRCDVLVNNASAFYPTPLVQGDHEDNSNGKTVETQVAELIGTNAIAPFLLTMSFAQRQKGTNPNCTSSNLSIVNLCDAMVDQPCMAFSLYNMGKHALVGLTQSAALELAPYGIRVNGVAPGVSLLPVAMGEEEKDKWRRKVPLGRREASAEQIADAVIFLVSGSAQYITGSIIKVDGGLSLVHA

[8] = target: LmDHFR (Leishmania major, UniProt P07382); assay: LmDHFR inhibition assay; type: biochemical, L. major
[9] = target: TcDHFR (Trypanosoma cruzi, UniProt Q27793); assay: TcDHFR inhibition assay; type: biochemical, T. cruzi
[10] = tested on: T. brucei; details: read-out: T. brucei EC50; cited from earlier work
[11] = tested on: T. brucei; details: read-out: growth of parasites EC50; mean value from four diverse culture media; cited from earlier work
[12] = read-out: T. brucei EC50 (μM) folate deficiency

Sequence of TbTS (Q27783 whole entry, the tested form may be a part): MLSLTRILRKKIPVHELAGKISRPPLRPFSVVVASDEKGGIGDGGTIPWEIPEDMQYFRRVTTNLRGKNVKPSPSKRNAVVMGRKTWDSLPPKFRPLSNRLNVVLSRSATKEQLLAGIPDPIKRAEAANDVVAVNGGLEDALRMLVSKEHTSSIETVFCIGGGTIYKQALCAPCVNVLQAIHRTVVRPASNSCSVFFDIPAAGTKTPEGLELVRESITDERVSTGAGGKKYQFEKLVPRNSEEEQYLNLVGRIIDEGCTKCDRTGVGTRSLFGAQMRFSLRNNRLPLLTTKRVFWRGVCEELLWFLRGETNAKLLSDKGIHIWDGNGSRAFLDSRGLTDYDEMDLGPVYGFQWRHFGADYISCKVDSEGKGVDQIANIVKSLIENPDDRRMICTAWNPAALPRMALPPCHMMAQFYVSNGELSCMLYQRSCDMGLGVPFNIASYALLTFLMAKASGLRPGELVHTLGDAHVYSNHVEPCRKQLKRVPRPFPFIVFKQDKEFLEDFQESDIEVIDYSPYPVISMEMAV
Sequence of TbDHFR (Q27783 whole entry): as the sequence (Q27783 whole entry, the tested form may be a part) above
Sequence of hTS (P04818 whole entry): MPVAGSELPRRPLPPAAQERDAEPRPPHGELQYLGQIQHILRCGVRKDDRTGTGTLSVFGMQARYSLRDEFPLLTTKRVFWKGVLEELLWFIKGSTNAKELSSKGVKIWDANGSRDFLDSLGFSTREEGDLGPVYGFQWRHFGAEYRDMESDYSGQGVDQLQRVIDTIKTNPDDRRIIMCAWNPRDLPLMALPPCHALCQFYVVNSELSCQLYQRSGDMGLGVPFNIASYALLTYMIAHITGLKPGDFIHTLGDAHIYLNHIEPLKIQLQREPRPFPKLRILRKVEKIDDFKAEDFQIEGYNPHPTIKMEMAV
Sequence of TcDHFR (Q27793 whole entry): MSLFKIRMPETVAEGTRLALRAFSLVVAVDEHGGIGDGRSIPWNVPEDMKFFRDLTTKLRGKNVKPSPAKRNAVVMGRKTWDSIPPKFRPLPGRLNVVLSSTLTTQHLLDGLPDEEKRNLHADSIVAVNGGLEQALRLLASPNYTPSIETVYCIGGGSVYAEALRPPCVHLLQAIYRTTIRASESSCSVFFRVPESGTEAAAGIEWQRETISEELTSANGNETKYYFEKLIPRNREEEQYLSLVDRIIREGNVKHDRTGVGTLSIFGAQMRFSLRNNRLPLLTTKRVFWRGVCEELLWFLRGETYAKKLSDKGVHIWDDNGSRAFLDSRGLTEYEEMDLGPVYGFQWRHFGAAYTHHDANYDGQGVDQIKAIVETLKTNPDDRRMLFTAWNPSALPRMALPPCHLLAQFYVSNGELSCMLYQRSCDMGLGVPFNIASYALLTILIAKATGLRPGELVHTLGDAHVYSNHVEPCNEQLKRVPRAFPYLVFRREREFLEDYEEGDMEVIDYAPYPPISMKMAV
Sequence of LmDHFR (P07382 whole entry): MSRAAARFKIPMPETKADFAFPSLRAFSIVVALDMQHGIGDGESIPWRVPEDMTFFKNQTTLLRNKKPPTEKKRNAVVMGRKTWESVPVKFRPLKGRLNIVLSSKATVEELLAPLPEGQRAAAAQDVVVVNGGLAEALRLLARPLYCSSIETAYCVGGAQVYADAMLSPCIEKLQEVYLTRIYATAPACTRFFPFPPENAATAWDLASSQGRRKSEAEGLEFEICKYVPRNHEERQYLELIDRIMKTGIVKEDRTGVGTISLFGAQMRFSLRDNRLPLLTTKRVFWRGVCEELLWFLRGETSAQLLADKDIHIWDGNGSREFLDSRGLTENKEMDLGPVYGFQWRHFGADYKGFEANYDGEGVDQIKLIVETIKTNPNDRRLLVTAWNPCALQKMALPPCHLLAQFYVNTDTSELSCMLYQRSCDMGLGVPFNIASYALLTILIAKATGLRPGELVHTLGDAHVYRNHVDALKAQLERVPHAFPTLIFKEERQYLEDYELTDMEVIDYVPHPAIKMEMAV

Structure (SMILES) | Ki [1] [µM] | Ki [2] [µM] | EC50 ([3]; read-out: T. brucei EC50 (μM)) [µM] | EC50 [3, 12] [µM] | EC50 [4] [µM] | Ki [5] [µM] | Ki [6] [µM] | Ki [7] [µM] | Ki [8] [µM] | Ki [9] [µM] | drop-off in potency TcDHFR versus TbDHFR ([9]; Ki TcDHFR versus Ki TbDHFR) [fold] | EC50 [10] [µM] | EC50 enhancement in folate deficiency medium versus standard medium ([3]; T. brucei, 23.3 μM to 5.4 nM) [fold] | EC50 [11] [µM]
N=C(N)Nc1nc2ccccc2[nH]1 [2a, 2-Guanidinobenzimidazole] | 23.6 | > 500 | > 20 | > 20 | > 20 | 0.029 | 2.21 | 13.3 |  |  |  |  |  | 
N=C(N)Nc1nc2cc(Cl)c(Cl)cc2[nH]1 [2c, 5,6-Dichloro-2-guanidinobenzimidazole] | 50.3 | > 500 | 7.8 | 6.52 | 22.5 | 0.66 | 1.51 | 3.23 | 1.58 |  |  |  |  | 
N=C(N)Nc1nc2cc(Cl)cc(Cl)c2[nH]1 [2d, 4,6-Dichloro-2-guanidinobenzimidazole] | 20.3 | > 500 | 2.91 | 5.97 | 6.62 | 0.113 | 4.36 | 4.94 |  |  |  |  |  | 
Cc1cc2nc(NC(=N)N)[nH]c2cc1C [2g, 5,6-Dimethyl-2-guanidinobenzimidazole] | 18.2 | > 500 | 14.5 | 13.8 | > 20 | 0.009 | 3.55 | 54 | 1.04 | 0.6 | 67 |  |  | 
CC1(C)N=C(N)N=C(N)N1c1ccc(Cl)cc1 [Cyc, cycloguanil, reference compound] |  |  | > 80 | 27.2 | > 80 |  |  | 4.16 |  |  |  | > 25 |  | 
CCCCCCCCCCCCCCCCOP(=O)([O-])OCC[N+](C)(C)C [MLF, miltefosine, reference compound] |  |  |  |  | 10.9 |  |  |  |  |  |  |  |  | 
CN(Cc1cnc2nc(N)nc(N)c2n1)c1ccc(C(=O)N[C@@H](CCC(=O)O)C(=O)O)cc1 [MTX, methotrexate, reference compound] |  |  | 23.3 | 0.0054 |  |  |  |  |  |  |  |  | 4300 | 
N=C(N)c1ccc(OCCCCCOc2ccc(C(=N)N)cc2)cc1 [PENT, pentamidine, reference compound] |  |  | 0.0041 |  |  |  |  |  |  |  |  |  |  | 
CCc1nc(N)nc(N)c1-c1ccc(Cl)cc1 [Pyr, pyrimethamine, reference compound] |  | 11.8 | 17.3 | 2.08 | 99.2 |  |  |  |  |  |  |  |  | 
Cc1ccc2nc(N)[nH]c(=O)c2c1Sc1ccncc1 [nolatrexed] |  |  |  |  |  |  |  |  |  |  |  |  |  | ~32
